For 4 compounds, Activity and inhibition results are on record in ChEMBL document CHEMBL3745623, “Polyphenols isolated from leaves of Vitis thunbergii var. taiwaniana regulate APP related pathway” (Bioorg Med Chem Lett, 2016).

For series [1], the system named is N2a. The series can be described thus: Cytotoxicity against mouse N2A cells expressing human APP695 assessed as reduction in cell viability up to 8 uM after 10 hrs by CCK-8 assay. The class given is cell-based.
Series [2] concerns N2a. Kind of series: Cytotoxicity against mouse N2A cells expressing human APP695 assessed as reduction in cell viability at 8 to 100 uM after 10 hrs by CCK-8 assay. It is filed as cell-based.
In series [3] the test system is N2a. Kind of series: Decrease in amyloid beta40 level in mouse N2A cells expressing human APP695 after 10 hrs by sandwich ELISA. The class given is functional, cell-based.
In series [4] the test system is N2a. The series can be described thus: Decrease in amyloid beta42 level in mouse N2A cells expressing human APP695 after 10 hrs by sandwich ELISA. The class given is functional, cell-based.
The test system of series [5] is N2a. The series can be described thus: Inhibition of gamma-secretase in mouse N2A cells transfected with NotchdeltaE assessed as reduction in Notch intracellular domain level at 8 uM after 10 hrs by densitometry analysis. The class given is cell-based.
Series [6] relates to N2a. The series can be described thus: Downregulation of N-terminal fragment of presenilin1 level in mouse N2A cells at 8 uM after 10 hrs by Western blot analysis. The class given is functional, cell-based.
Series [7] concerns the target Beta-secretase 1 (Mus musculus) (UniProt P56818). The series can be described thus: Inhibition of BACE1 in mouse N2A cells expressing human APP695 assessed as decrease in soluble APP beta protein level at 8 uM after 10 hrs by Western blot analysis. The class given is cell-based.
Series [8] deals with N2a. The series can be described thus: Upregulation of soluble APP alpha protein level in mouse N2A cells expressing human APP695 at 8 uM after 10 hrs by Western blot analysis. It is filed as functional, cell-based.
The test system of series [9] is N2a. Kind of series: Effect on full length APP level in mouse N2A cells expressing human APP695 at 8 uM after 10 hrs by Western blot analysis. It is filed as functional, cell-based.
Series [10] concerns N2a. The series can be described thus: Effect on BACE1 level in mouse N2A cells expressing human APP695 at 8 uM after 10 hrs by Western blot analysis. It is filed as functional, cell-based.
Series [11] deals with N2a. The series can be described thus: Effect on immature ADAM10 level in mouse N2A cells expressing human APP695 at 8 uM after 10 hrs by Western blot analysis. The class given is functional, cell-based.
The subject of series [12] is N2a. The series can be described thus: Effect on ADAM17 level in mouse N2A cells expressing human APP695 at 8 uM after 10 hrs by Western blot analysis. The class given is functional, cell-based.
Series [13] relates to N2a. Kind of series: Effect on mature ADAM10 level in mouse N2A cells expressing human APP695 at 8 uM after 10 hrs by Western blot analysis. The class given is functional, cell-based.
The target in series [14] is Beta-secretase 1 (Mus musculus) (UniProt P56818). The series can be described thus: Inhibition of BACE1 in mouse N2A cells at 8 uM after 10 hrs by fluorescence plate reader analysis. It is filed as cell-based.
Beta-secretase 1 (Mus musculus), sequence (P56818 whole entry): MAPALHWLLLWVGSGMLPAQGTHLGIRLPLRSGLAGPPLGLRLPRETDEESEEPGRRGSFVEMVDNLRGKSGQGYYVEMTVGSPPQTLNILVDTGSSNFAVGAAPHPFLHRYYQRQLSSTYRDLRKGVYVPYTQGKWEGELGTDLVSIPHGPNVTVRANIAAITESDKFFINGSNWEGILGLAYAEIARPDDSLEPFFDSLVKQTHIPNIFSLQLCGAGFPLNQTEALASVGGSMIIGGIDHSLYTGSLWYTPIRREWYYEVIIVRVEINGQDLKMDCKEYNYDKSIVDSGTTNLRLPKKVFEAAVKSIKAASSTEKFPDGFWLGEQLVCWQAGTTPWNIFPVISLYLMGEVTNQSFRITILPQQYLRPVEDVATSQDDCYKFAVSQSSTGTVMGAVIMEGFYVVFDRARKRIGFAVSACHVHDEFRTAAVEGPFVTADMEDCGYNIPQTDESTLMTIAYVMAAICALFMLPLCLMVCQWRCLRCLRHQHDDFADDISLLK
The target in series [15] is Beta-secretase 1 (Homo sapiens) (UniProt P56817). The series can be described thus: Inhibition of BACE1 in human SH-SY5Y cells at 8 uM after 10 hrs by fluorescence plate reader analysis. The class given is cell-based.
Beta-secretase 1 (Homo sapiens), sequence (P56817 whole entry, the tested form may be a part): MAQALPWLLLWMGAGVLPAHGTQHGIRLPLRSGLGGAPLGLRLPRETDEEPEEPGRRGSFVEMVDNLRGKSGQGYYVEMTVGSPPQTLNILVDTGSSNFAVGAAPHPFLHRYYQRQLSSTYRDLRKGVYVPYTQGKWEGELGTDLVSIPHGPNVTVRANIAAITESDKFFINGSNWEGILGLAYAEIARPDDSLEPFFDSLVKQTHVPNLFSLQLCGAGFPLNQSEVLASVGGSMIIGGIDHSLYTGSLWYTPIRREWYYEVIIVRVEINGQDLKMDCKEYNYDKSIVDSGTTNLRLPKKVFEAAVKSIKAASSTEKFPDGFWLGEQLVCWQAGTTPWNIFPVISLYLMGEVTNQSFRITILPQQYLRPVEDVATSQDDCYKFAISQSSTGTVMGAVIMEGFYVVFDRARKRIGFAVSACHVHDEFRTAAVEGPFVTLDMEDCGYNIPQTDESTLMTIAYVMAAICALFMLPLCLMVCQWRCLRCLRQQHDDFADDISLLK
For series [16], the target named is Disintegrin and metalloproteinase domain-containing protein 17 (Homo sapiens) (UniProt P78536). The series can be described thus: Activation of TACE in human SH-SY5Y cells at 8 uM after 10 hrs by fluorescence assay. The class given is cell-based.
Disintegrin and metalloproteinase domain-containing protein 17 (Homo sapiens), sequence (P78536 whole entry, the tested form may be a part): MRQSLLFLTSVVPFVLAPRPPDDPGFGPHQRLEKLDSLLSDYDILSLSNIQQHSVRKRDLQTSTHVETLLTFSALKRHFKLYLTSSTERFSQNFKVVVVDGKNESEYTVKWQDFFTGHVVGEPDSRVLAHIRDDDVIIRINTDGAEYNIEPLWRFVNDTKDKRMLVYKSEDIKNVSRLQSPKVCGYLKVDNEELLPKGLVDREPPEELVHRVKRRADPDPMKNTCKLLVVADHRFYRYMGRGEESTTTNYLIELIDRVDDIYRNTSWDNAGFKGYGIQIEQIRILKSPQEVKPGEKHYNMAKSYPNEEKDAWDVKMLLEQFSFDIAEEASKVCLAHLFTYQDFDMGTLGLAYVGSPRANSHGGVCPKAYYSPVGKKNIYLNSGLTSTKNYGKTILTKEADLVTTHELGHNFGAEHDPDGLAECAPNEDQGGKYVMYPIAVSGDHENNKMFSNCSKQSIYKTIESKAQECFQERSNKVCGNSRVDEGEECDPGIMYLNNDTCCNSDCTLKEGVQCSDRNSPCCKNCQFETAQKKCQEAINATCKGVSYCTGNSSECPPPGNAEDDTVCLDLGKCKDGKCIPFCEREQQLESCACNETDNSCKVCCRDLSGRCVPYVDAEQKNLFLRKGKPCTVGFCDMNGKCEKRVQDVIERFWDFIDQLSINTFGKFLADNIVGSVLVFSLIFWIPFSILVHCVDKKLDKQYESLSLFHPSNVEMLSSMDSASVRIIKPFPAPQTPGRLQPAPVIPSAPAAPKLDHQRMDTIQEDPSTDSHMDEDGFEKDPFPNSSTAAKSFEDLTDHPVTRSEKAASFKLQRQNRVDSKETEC
Series [17] concerns N2a. The series can be described thus: Decrease in amyloid beta40 level in mouse N2A cells expressing human APP695 at 10 uM after 10 hrs by sandwich ELISA. The class given is functional, cell-based.
In series [18] the test system is N2a. The series can be described thus: Cytotoxicity against mouse N2A cells expressing human APP695 assessed as reduction in cell viability up to 16 uM after 10 hrs by CCK-8 assay. It is filed as cell-based.
The subject of series [19] is N2a. The series can be described thus: Cytotoxicity against mouse N2A cells expressing human APP695 assessed as reduction in cell viability at 16 to 100 uM after 10 hrs by CCK-8 assay. It is filed as cell-based.
Series [20] concerns the target Beta-secretase 1 (Mus musculus) (UniProt P56818). The series can be described thus: Inhibition of BACE1 in mouse N2A cells expressing human APP695 assessed as reduction in amyloid beta40 level after 10 hrs by sandwich ELISA. It is filed as cell-based.
For series [21] the target is unchanged. The series can be described thus: Inhibition of BACE1 in mouse N2A cells expressing human APP695 assessed as reduction in amyloid beta42 level after 10 hrs by sandwich ELISA. It is filed as cell-based.
For series [22] the target is unchanged. Kind of series: Inhibition of BACE1 in mouse N2A cells expressing human APP695 assessed as reduction in amyloid beta40 level at 10 uM after 10 hrs by sandwich ELISA. The class given is cell-based.
Series [23] deals with N2a. The series can be described thus: Upregulation of soluble APP alpha protein level in mouse N2A cells expressing human APP695 at 10 uM after 10 hrs by Western blot analysis. The class given is functional, cell-based.

Active and inactive are the calls of the source. The rule behind the calls is not given here.

For `Oc1ccc([C@H]2c3c(O)cc(O)cc3[C@H]3c4c(cc(O)cc4[C@H]4[C@H](c5ccc(O)cc5)c5cc(O)cc(O)c5[C@H]24)O[C@@H]3c2ccc(O)cc2)cc1`, the Activity result is “Non-toxic” with N2a [1], “Dose-dependent effect” with N2a [2], “Dose-dependent effect” in the series on N2a [3] and “Dose-dependent effect” in the series on N2a [4]. Further, the inhibition result (in the series with N2a [5]; in [7]; in series [14]) was “inactive” each time. The outcome with N2a [6], with N2a [9], with N2a [10], with N2a [11], with N2a [12] and with N2a [13] was inactive. Besides, the outcome (with N2a [8]; in series [16]; in the series on N2a [17]) was Active. In addition, the inhibition entry in series [15] was “Active”.
On to `Oc1ccc([C@@H]2c3c(O)cc(O)cc3[C@@H]3c4c(cc(O)c5c4[C@H]2[C@@H](c2cc(O)cc(O)c2)[C@@H]5c2ccc(O)cc2)O[C@H]3c2ccc(O)cc2)cc1`, for which the Activity result was “Non-toxic” in the series on N2a [18], “Dose-dependent effect” in the series with N2a [19], “Dose-dependent effect” in the series on N2a [3] and “Dose-dependent effect” in the series with N2a [4]. For the same compound, the inhibition result (with N2a [5]; in [7]) was “inactive” each time. Besides, the outcome in the series on N2a [6], in the series with N2a [9], with N2a [10], with N2a [11], in the series on N2a [12] and in the series with N2a [13] was inactive. The result in series [16] was inactive. Besides, the outcome in the series on N2a [8] and with N2a [17] was Active. The inhibition entry in series [14] and in [15] was “Active” each time.
`Oc1ccc([C@@H]2c3c(O)cc4c5c3[C@@H]([C@@H](c3ccc(O)cc3)c3c(O)cc(O)cc3[C@@H]5[C@@H](c3ccc(O)cc3)O4)[C@H]2c2cc(O)cc(O)c2)cc1` [AMPELOPSIN C]: the values for the Activity result in the series on N2a [1] and in the series on N2a [2] were “Non-toxic” and “Dose-dependent effect”, respectively. Moreover, the inhibition result in series [20] and in [21] was “Dose-dependent effect” in each case. Moreover, the inhibition result with N2a [5] was “inactive”. Also, the result in the series with N2a [6], in the series with N2a [9], in the series on N2a [10], in the series on N2a [11], in the series with N2a [12] and with N2a [13] was inactive. Besides, the result in [16] was inactive. The inhibition result in [7], in series [14], in [15] and in [22] was “Active” in each case. Besides, in the series on N2a [8], the result was Active.
For `C[C@@H](NC(=O)c1cc(C(=O)N[C@@H](Cc2ccccc2)[C@H](O)CNC2CC2)cc(N(C)S(C)(=O)=O)c1)c1ccccc1`, the result in the series on N2a [23] was Active.
